Measurements reported in ChEMBL document CHEMBL1153169, “Structure-activity relationships of the ultrapotent vanilloid resiniferatoxin (RTX): The side chain benzylic methylene” (Bioorg Med Chem Lett, 2010).

The compounds below were run against T1, Transient receptor potential cation channel subfamily V member 1 (Homo sapiens, UniProt Q8NER1) (assay: Selectivity ratio of EC50 for drug to capsaicin for human TRPV1 expressed in HEK293 cells assessed as increase in intracellular calcium level).
T1 sequence (Q8NER1 whole entry): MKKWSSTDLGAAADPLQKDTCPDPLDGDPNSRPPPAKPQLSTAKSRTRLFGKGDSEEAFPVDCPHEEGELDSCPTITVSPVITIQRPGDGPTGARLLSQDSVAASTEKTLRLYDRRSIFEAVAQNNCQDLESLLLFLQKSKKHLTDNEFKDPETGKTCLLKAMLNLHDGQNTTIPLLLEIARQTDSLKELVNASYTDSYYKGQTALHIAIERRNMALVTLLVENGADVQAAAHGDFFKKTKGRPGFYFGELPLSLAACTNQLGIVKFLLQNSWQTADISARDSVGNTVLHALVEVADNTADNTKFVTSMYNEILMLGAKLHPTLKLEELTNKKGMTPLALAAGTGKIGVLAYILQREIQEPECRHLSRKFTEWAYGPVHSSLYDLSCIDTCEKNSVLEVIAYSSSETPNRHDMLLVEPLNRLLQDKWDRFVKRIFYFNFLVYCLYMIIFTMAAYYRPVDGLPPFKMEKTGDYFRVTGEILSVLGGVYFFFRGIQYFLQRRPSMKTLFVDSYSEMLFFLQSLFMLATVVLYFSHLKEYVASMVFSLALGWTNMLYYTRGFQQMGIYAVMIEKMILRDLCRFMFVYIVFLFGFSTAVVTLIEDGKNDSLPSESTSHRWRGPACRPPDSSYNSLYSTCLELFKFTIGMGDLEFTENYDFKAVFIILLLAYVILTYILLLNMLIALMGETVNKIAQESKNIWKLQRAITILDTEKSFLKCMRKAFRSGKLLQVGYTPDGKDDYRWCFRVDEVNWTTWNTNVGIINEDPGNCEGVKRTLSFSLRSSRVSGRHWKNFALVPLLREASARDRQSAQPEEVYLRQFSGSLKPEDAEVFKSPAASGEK
Type: cell-based
For `C=C(C)[C@]12C[C@@H](C)[C@@]34O[C@](Cc5ccccc5)(O[C@@H]1[C@@H]3C=C(COC(=O)Oc1ccc(O)c(OC)c1)C[C@]1(O)C(=O)C(C)=C[C@@H]41)O2`, the Ratio EC50 was 3.

The compounds below were run against T1, Transient receptor potential cation channel subfamily V member 1 (assay: Antagonist activity at human TRPV1 expressed in HEK293 cells assessed as inhibition of intracellular calcium level).
Type: functional, cell-based
Work on `C=C(C)[C@]12C[C@@H](C)[C@@]34O[C@](Cc5ccccc5)(O[C@@H]1[C@@H]3C=C(COC(=O)Cc1cc(I)c(O)c(OC)c1)C[C@]1(O)C(=O)C(C)=C[C@@H]41)O2` [IODORESINIFERATOXIN] yielded an IC50 of 4000 nM.

The compounds below were run against T1, Transient receptor potential cation channel subfamily V member 1 (assay: Agonist activity at human TRPV1 expressed in HEK293 cells assessed as increase in intracellular calcium level).
Type: functional, cell-based
Compound `C=C(C)[C@]12C[C@@H](C)[C@@]34O[C@](Cc5ccccc5)(O[C@@H]1[C@@H]3C=C(COC(=O)C(OC)c1ccc(O)c(OC)c1)C[C@]1(O)C(=O)C(C)=C[C@@H]41)O2` (some centres undefined) has an EC50 of 17.4 nM. Compound `C=C(C)[C@]12C[C@@H](C)[C@@]34O[C@](Cc5ccccc5)(O[C@@H]1[C@@H]3C=C(COC(=O)C(OC(C)=O)c1ccc(O)c(OC)c1)C[C@]1(O)C(=O)C(C)=C[C@@H]41)O2` (some centres undefined) has an EC50 of 0.65 nM. Compound `C=C(C(=O)OCC1=C[C@H]2[C@H]3O[C@@]4(Cc5ccccc5)O[C@@]2([C@H](C)C[C@]3(C(=C)C)O4)[C@@H]2C=C(C)C(=O)[C@@]2(O)C1)c1ccc(O)c(OC)c1` has an EC50 of 0.15 nM. With `C=C(C)[C@]12C[C@@H](C)[C@@]34O[C@](Cc5ccccc5)(O[C@@H]1[C@@H]3C=C(COC(=O)C(C)c1ccc(O)c(OC)c1)C[C@]1(O)C(=O)C(C)=C[C@@H]41)O2` (some centres undefined) the EC50 was 0.98 nM. In the case of `C=C(C)[C@]12C[C@@H](C)[C@@]34O[C@](Cc5ccccc5)(O[C@@H]1[C@@H]3C=C(COC(=O)C(O)c1ccc(O)c(OC)c1)C[C@]1(O)C(=O)C(C)=C[C@@H]41)O2` (some centres undefined), the EC50 is reported as 19 nM. `C=C(C)[C@]12C[C@@H](C)[C@@]34O[C@](Cc5ccccc5)(O[C@@H]1[C@@H]3C=C(COC(=O)Oc1ccc(O)c(OC)c1)C[C@]1(O)C(=O)C(C)=C[C@@H]41)O2` gave an EC50 of 13.7 nM. In the case of `C=C(C)[C@]12C[C@@H](C)[C@@]34O[C@](Cc5ccccc5)(O[C@@H]1[C@@H]3C=C(COC(=O)Oc1cc(I)c(O)c(OC)c1)C[C@]1(O)C(=O)C(C)=C[C@@H]41)O2`, the EC50 is reported as 0.0047 nM.
